Assay [1] has as its target T1, PBP3 (penicillin-binding protein 3, PBP3*) (Streptococcus pneumoniae, UniProt Q8DQ99).
T1 construct: gene dacA; soluble truncated PBP3 (Gly15-Lys394), N-terminal hexa-His tag kept, synthetic gene, expressed in E. coli BL21*(DE3) pLysS, Ni-NTA purified; captured on anti-His antibody
T1 sequence (Q8DQ99 15-394): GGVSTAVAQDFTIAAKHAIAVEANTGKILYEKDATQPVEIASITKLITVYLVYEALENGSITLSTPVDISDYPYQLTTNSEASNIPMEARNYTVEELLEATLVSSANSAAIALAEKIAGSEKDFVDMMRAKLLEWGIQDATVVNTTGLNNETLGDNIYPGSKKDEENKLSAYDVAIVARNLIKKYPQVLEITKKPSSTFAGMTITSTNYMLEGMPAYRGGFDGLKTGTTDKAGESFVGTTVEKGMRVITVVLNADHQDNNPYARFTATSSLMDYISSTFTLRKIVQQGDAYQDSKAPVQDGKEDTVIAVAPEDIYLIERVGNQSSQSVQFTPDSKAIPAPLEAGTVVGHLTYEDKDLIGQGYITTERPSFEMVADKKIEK
Description: competitive enzyme-linked assay on microtiter plate, optical readout. The settings on record: competition with ampicillin-biotin conjugate.

For assay [2], the target named is T1, PBP3 (penicillin-binding protein 3, PBP3*). Description: competitive enzyme-linked assay on electrochemical microfluidic chip, avidin-glucose oxidase readout. An excerpt: competitive enzyme-linked assay on electrochemical microfluidic chip, avidin-glucose oxidase readout on PBP3 (penicillin-binding protein 3, PBP3*)

Read-outs that look alike come from different tables or passages of the source.

`CC1(C)S[C@@H]2[C@H](NC(=O)[C@H](N)c3ccccc3)C(=O)N2[C@H]1C(=O)O` [ampicillin]: in assay [1], the “competitive enzyme-linked assay on microtiter plate, optical readout” value is given as “confirmed via the optical quantification of ampicillin on a microtiter plate”.
For the compound `Cc1nnc(SCC2=C(C(=O)O)N3C(=O)[C@@H](NC(=O)Cn4cnnn4)[C@H]3SC2)s1` [cefazolin], the IC50 in assay [2] (read-out: Cefazolin (converted)) was 19.2 nM.
In the case of `CO/N=C(\C(=O)N[C@@H]1C(=O)N2C(C(=O)O)=C(COC(N)=O)CS[C@H]12)c1ccco1` [cefuroxime], in assay [2] (read-out: Cefuroxime (converted)), the IC50 was 26.1 nM.
In the case of `CCN1CCN(C(=O)N[C@@H](C(=O)N[C@@H]2C(=O)N3[C@@H]2SC(C)(C)[C@@H]3C(=O)O)c2ccccc2)C(=O)C1=O` [piperacillin], the IC50 in assay [2] (read-out: Piperacillin (converted)) is 35.5 nM.

Source of the values: article PMC5466632, “Clinical on-site monitoring of ß-lactam antibiotics for a personalized antibiotherapy” (Scientific Reports, 2017).
